Among the data in ChEMBL document CHEMBL5608211, “Antibody-drug conjugates for targeted cancer therapy: Recent advances in potential payloads” (Eur J Med Chem, 2024) are IC50 values, retold here.

The test system of one assay is EMT6. Put plainly: Cytotoxicity against mouse EMT6 cells assessed as inhibition of cell growth incubated for 3 days by SRB assay. Format: functional, cell-based. The note with it: EMT6, 72 h. For orientation: Sulforhodamine B stains cellular protein and so reports cell mass.
The test system of the next assay is DEL. Kind of assay: Cytotoxicity against human DEL cells assessed as inhibition of cell growth incubated for 4 days by CellTiter-Glo luminescent assay. The assay is classed as functional, cell-based. The note with it: 96 h.

As for `COc1cc2c(cc1OCCCCCC(=O)N1C[C@H](CCl)c3c1cc(O)c1ccccc31)N=C[C@@H]1CCCN1C2=O`, the IC50 (as a rule, the concentration needed to halve the response being measured) with EMT6 was found to be 0.0078 nM.
In the case of `CC[C@@]1(O)C(=O)OCc2c1cc1n(c2=O)Cc2c-1nc1cc3c(cc1c2CN)OCO3`, the half-maximal inhibitory concentration (IC50) in the assay with DEL amounted to 0.7 nM.
